Measurements reported in US10787452B2 (Vertex Pharmaceuticals Incorporated, priority 2012, dated 2020).

Test system: HCT116 colorectal cancer cells
Experiment: Cisplatin sensitization assay (96 h cell viability MTS);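 further: compound concentration needed to lower the Cisplatin-alone IC50 by a set fold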
Format: cell-based
Conditions: 96 h MTS, compound plus Cisplatin
How it was run: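 Viability was measured by MTS after 96 h co-exposure of HCT116 colorectal cells to a full-matrix dilution grid of compound and cisplatin (2-fold steps, highest final concentration 10 μM, added together). Plates were kept at 37 °C in 5% CO2, and the MTS reagent was incubated for 1 h before reading.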

SMILES	Cisplatin Sensitization Assay
Nc1nn2cc(F)cnc2c1C(=O)Nc1cnccc1CN1CCCC1=O [I-C-76, 2-amino-6-fluoro-N-(4-((2-oxopyrrolidin-1-yl)methyl)pyridin-3-yl)pyrazolo[1,5-a]pyrimidine-3-carboxamide]	+ (Compounds with a Cisplatin sensitization value >0.2 μM but <5 μM are marked with “+.”)
Cc1ncc(-c2ccncc2NC(=O)c2c(N)nn3cc(F)cnc23)n1C [I-C-77, 2-amino-N-(4-(1,2-dimethyl-1H-imidazol-5-yl)pyridin-3-yl)-6-fluoropyrazolo[1,5-a]pyrimidine-3-carboxamide]	+++ (Compounds with a Cisplatin sensitization value of <0.02 μM are marked with “+++.”)
Cc1ncn(C)c1-c1ccncc1NC(=O)c1c(N)nn2cc(F)cnc12 [I-C-78, 2-amino-N-(4-(1,4-dimethyl-1H-imidazol-5-yl)pyridin-3-yl)-6-fluoropyrazolo[1,5-a]pyrimidine-3-carboxamide]	++ (Compounds with a Cisplatin sensitization value >0.02 μM but <0.2 μM are marked with “++.”)
Cn1cncc1-c1c(F)cncc1NC(=O)c1c(N)nn2cc(F)cnc12 [I-C-79, 2-amino-6-fluoro-N-(5-fluoro-4-(1-methyl-1H-imidazol-5-yl)pyridin-3-yl)pyrazolo[1,5-a]pyrimidine-3-carboxamide]	+++ (Compounds with a Cisplatin sensitization value of <0.02 μM are marked with “+++.”)
CCn1cncc1-c1ccncc1NC(=O)c1c(N)nn2cc(F)cnc12 [I-C-80, 2-amino-N-(4-(1-ethyl-1H-imidazol-5-yl)pyridin-3-yl)-6-fluoropyrazolo[1,5-a]pyrimidine-3-carboxamide]	+++ (Compounds with a Cisplatin sensitization value of <0.02 μM are marked with “+++.”)
COc1cncc(NC(=O)c2c(N)nn3cc(F)cnc23)c1-c1cncn1C [I-C-81, 2-amino-6-fluoro-N-(5-methoxy-4-(1-methyl-1H-imidazol-5-yl)pyridin-3-yl)pyrazolo[1,5-a]pyrimidine-3-carboxamide]	+++ (Compounds with a Cisplatin sensitization value of <0.02 μM are marked with “+++.”)
COc1cncc(NC(=O)c2c(N)nn3cc(F)cnc23)c1-c1cccnc1 [I-C-82, 2-amino-6-fluoro-N-(5′-methoxy-[3,4′-bipyridin]-3′-yl)pyrazolo[1,5-a]pyrimidine-3-carboxamide]	+++ (Compounds with a Cisplatin sensitization value of <0.02 μM are marked with “+++.”)
COCCn1cncc1-c1ccncc1NC(=O)c1c(N)nn2cc(F)cnc12 [I-C-83, 2-amino-6-fluoro-N-(4-(1-(2-methoxyethyl)-1H-imidazol-5-yl)pyridin-3-yl)pyrazolo[1,5-a]pyrimidine-3-carboxamide]	++ (Compounds with a Cisplatin sensitization value >0.02 μM but <0.2 μM are marked with “++.”)
COc1cncc(NC(=O)c2c(N)nn3cc(F)cnc23)c1C1CC1 [I-C-84, 2-amino-N-(4-cyclopropyl-5-methoxypyridin-3-yl)-6-fluoropyrazolo[1,5-a]pyrimidine-3-carboxamide]	++ (Compounds with a Cisplatin sensitization value >0.02 μM but <0.2 μM are marked with “++.”)
CN1CCN(C(=O)C2CCN(c3ccncc3NC(=O)c3c(N)nn4cc(F)cnc34)CC2)CC1 [I-G-1, 2-amino-6-fluoro-N-(4-(4-(4-methylpiperazine-1-carbonyl)piperidin-1-yl)pyridin-3-yl)pyrazolo[1,5-a]pyrimidine-3-carboxamide]	+++ (Compounds with a Cisplatin sensitization value of <0.02 μM are marked with “+++.”)
CN(C)C(=O)C1CCN(c2ccncc2NC(=O)c2c(N)nn3cc(F)cnc23)CC1 [I-G-2, 2-amino-N-(4-(4-(dimethylcarbamoyl)piperidin-1-yl)pyridin-3-yl)-6-fluoropyrazolo[1,5-a]pyrimidine-3-carboxamide]	+++ (Compounds with a Cisplatin sensitization value of <0.02 μM are marked with “+++.”)
CN1CCN(C(=O)C2CCN(c3c(Cl)cncc3NC(=O)c3c(N)nn4cc(F)cnc34)CC2)CC1 [I-G-3, 2-amino-N-(5-chloro-4-(4-(4-methylpiperazine-1-carbonyl)piperidin-1-yl)pyridin-3-yl)-6-fluoropyrazolo[1,5-a]pyrimidine-3-carboxamide]	+++ (Compounds with a Cisplatin sensitization value of <0.02 μM are marked with “+++.”)
CN1CCN(C(=O)C2CCN(c3c(F)cncc3NC(=O)c3c(N)nn4cc(F)cnc34)CC2)CC1 [I-G-4, 2-amino-6-fluoro-N-(5-fluoro-4-(4-(4-methylpiperazine-1-carbonyl)piperidin-1-yl)pyridin-3-yl)pyrazolo[1,5-a]pyrimidine-3-carboxamide]	+++ (Compounds with a Cisplatin sensitization value of <0.02 μM are marked with “+++.”)
CN1CCN(C(=O)C2CCN(c3c(F)cncc3NC(=O)c3c(N)nn4cc(Cl)cnc34)CC2)CC1 [I-G-5, 2-amino-6-chloro-N-(5-fluoro-4-(4-(4-methylpiperazine-1-carbonyl)piperidin-1-yl)pyridin-3-yl)pyrazolo[1,5-a]pyrimidine-3-carboxamide]	+++ (Compounds with a Cisplatin sensitization value of <0.02 μM are marked with “+++.”)
CN1CCCN(C(=O)C2CCN(c3c(F)cncc3NC(=O)c3c(N)nn4cc(F)cnc34)CC2)CC1 [I-G-6, 2-amino-6-fluoro-N-(5-fluoro-4-(4-(4-methyl-1,4-diazepane-1-carbonyl)piperidin-1-yl)pyridin-3-yl)pyrazolo[1,5-a]pyrimidine-3-carboxamide]	+++ (Compounds with a Cisplatin sensitization value of <0.02 μM are marked with “+++.”)
Nc1nn2cc(F)cnc2c1C(=O)Nc1cncc(F)c1N1CCC(C(=O)N2CCN3CCC2CC3)CC1 [I-G-7, N-(4-(4-(1,4-diazabicyclo[3.2.2]nonane-4-carbonyl)piperidin-1-yl)-5-fluoropyridin-3-yl)-2-amino-6-fluoropyrazolo[1,5-a]pyrimidine-3-carboxamide]	+++ (Compounds with a Cisplatin sensitization value of <0.02 μM are marked with “+++.”)
Nc1nn2cc(F)cnc2c1C(=O)Nc1cncc(F)c1N1CCC(C(=O)N2CCC2)CC1 [I-G-8, 2-amino-N-(4-(4-(azetidine-1-carbonyl)piperidin-1-yl)-5-fluoropyridin-3-yl)-6-fluoropyrazolo[1,5-a]pyrimidine-3-carboxamide]	+++ (Compounds with a Cisplatin sensitization value of <0.02 μM are marked with “+++.”)
CCN1CCN(C(=O)C2CCN(c3c(F)cncc3NC(=O)c3c(N)nn4cc(F)cnc34)CC2)CC1 [I-G-9, 2-amino-N-(4-(4-(4-ethylpiperazine-1-carbonyl)piperidin-1-yl)-5-fluoropyridin-3-yl)-6-fluoropyrazolo[1,5-a]pyrimidine-3-carboxamide]	+++ (Compounds with a Cisplatin sensitization value of <0.02 μM are marked with “+++.”)
Nc1nn2cc(F)cnc2c1C(=O)Nc1cncc(F)c1N1CCC(C(=O)N2CCN3CCCC3C2)CC1 (centres unmarked) [I-G-10, 2-amino-6-fluoro-N-(5-fluoro-4-(4-(octahydropyrrolo[1,2-a]pyrazine-2-carbonyl)piperidin-1-yl)pyridin-3-yl)pyrazolo[1,5-a]pyrimidine-3-carboxamide]	+++ (Compounds with a Cisplatin sensitization value of <0.02 μM are marked with “+++.”)
CN(C)[C@@H]1CCN(C(=O)C2CCN(c3c(F)cncc3NC(=O)c3c(N)nn4cc(F)cnc34)CC2)C1 [I-G-11, (R)-2-amino-N-(4-(4-(3-(dimethylamino)pyrrolidine-1-carbonyl)piperidin-1-yl)-5-fluoropyridin-3-yl)-6-fluoropyrazolo[1,5-a]pyrimidine-3-carboxamide]	+++ (Compounds with a Cisplatin sensitization value of <0.02 μM are marked with “+++.”)
Nc1nn2cc(F)cnc2c1C(=O)Nc1cncc(F)c1N1CCC(C(=O)N2CCNCC2)CC1 [I-G-12, 2-amino-6-fluoro-N-(5-fluoro-4-(4-(piperazine-1-carbonyl)piperidin-1-yl)pyridin-3-yl)pyrazolo[1,5-a]pyrimidine-3-carboxamide]	+++ (Compounds with a Cisplatin sensitization value of <0.02 μM are marked with “+++.”)
Nc1nn2cc(F)cnc2c1C(=O)Nc1cncc(F)c1N1CCC(C(=O)N2CCN(C3CC3)CC2)CC1 [I-G-13, 2-amino-N-(4-(4-(4-cyclopropylpiperazine-1-carbonyl)piperidin-1-yl)-5-fluoropyridin-3-yl)-6-fluoropyrazolo[1,5-a]pyrimidine-3-carboxamide]	+++ (Compounds with a Cisplatin sensitization value of <0.02 μM are marked with “+++.”)
Nc1nn2cc(F)cnc2c1C(=O)Nc1cncc(F)c1N1CCC(C(=O)N2CC3(COC3)C2)CC1 [I-G-14, N-(4-(4-(2-oxa-6-azaspiro[3.3]heptane-6-carbonyl)piperidin-1-yl)-5-fluoropyridin-3-yl)-2-amino-6-fluoropyrazolo[1,5-a]pyrimidine-3-carboxamide]	+++ (Compounds with a Cisplatin sensitization value of <0.02 μM are marked with “+++.”)
CN1CCN(C(=O)C2CCN(c3c(F)cncc3NC(=O)c3c(N)nn4cc(F)cnc34)CC2)CC1(C)C [I-G-15, 2-amino-6-fluoro-N-(5-fluoro-4-(4-(3,3,4-trimethylpiperazine-1-carbonyl)piperidin-1-yl)pyridin-3-yl)pyrazolo[1,5-a]pyrimidine-3-carboxamide]	+++ (Compounds with a Cisplatin sensitization value of <0.02 μM are marked with “+++.”)
CN(C)CCCN(C)C(=O)C1CCN(c2c(F)cncc2NC(=O)c2c(N)nn3cc(F)cnc23)CC1 [I-G-16, 2-amino-N-(4-(4-((3-(dimethylamino)propyl)(methyl)carbamoyl)piperidin-1-yl)-5-fluoropyridin-3-yl)-6-fluoropyrazolo[1,5-a]pyrimidine-3-carboxamide]	+++ (Compounds with a Cisplatin sensitization value of <0.02 μM are marked with “+++.”)
CNCCCN(C)C(=O)C1CCN(c2c(F)cncc2NC(=O)c2c(N)nn3cc(F)cnc23)CC1 [I-G-17]	+ (Compounds with a Cisplatin sensitization value >0.2 μM but <5 μM are marked with “+.”)
